The nature of the data set: wn = mass fraction of the nth substance listed. Particulars: 100 kPa, Liquid, Pycnometric method.

Experimental findings from the NIST ThermoML archive (doi:10.1021/acs.jced.7b00609) are described below.

Each structure is given as a SMILES string. Numbers after ± are expanded uncertainties.

Usually mass density stands for the mass of a sample divided by its volume. For the compound `CC1=CC(=O)c2ccccc2C1=O` [2-methyl-1,4-naphthalenedione] + C1COCCO1, the mass density is, setting by setting: (283.15 K, w1 = 0.1527) 1052.8 ± 14 kg/m3; (293.15 K, w1 = 0.2052) 1056.2 ± 14 kg/m3; (303.15 K, w1 = 0.2653) 1057.1 ± 14 kg/m3.
Consider `O=C1OC(=O)c2ccccc21` [isobenzofuran-1,3-dione] + C1COCCO1, for which the mass density reads like this: (283.15 K, w1 = 0.0851) 1052.7 ± 14 kg/m3; (293.15 K, w1 = 0.1354) 1059.7 ± 14 kg/m3; (303.15 K, w1 = 0.21) 1061.9 ± 14 kg/m3.
